Data: US4980362A, “4-substituted-2-alkoxytetrahydrofuran derivatives” (J. Uriach & CIA. S.A., priority 1990, dated 1990)
Each block holds one compound with its values, some of them ahead of it.

How the values were obtained:
[1] = tested on: platelet aggregation induced by PAF; experiment: Test 1: Inhibition of platelet aggregation induced by PAF; type: cell-based, rabbit (male New Zealand albino); conditions: rabbit platelet rich plasma, PAF (C18) 16 nM final, Born nephelometric technique
Method: Test 1: Inhibition of platelet aggregation induced by PAF.
The blood is obtained by cardiac puncture of male New Zealand albino rabbits (between 2 and 2.5 Kg of weight) and coagulation is prevented by adding 1 part of 3.16% sodium citrate dihydrate in 9 parts of blood. The platelet rich plasma (PRP) is prepared by blood centrifugation at 250×g for 10 min. at 4° C. and it is diluted with platelet poor plasma (PPP) by additional centrifugation at 3000×g for 10 min. The amount of platelets is adjusted to […]. The platelet aggregation induced by PAF (C18; prepared in our laboratory) (16 nM, final) is determined by the Born nephelometric technique (J. Physiol., 1962, 162, 67) using a aggregometer Chrono-log 500. The activities of the inhibitors are expressed as IC50, that is to say the concentration of the drug needed to inhibit the platelet aggregation by 50%.

[2] = tested on: hypotension induced by PAF; experiment: Test 2: Inhibition of the hypotensive effect induced by PAF in normotense rats; type: in vivo, rat (male Sprage Dawley); conditions: anesthetized male rats, compound 3 min before PAF 0.5 mcg/Kg i.v., text calls it IC50; for ED50: Rattus norvegicus, iv, read-out: CI50 (the source's name); for CI50: i.v.
Method: Test 2 - Inhibition of the hypotensive effect induced by PAF in normotense rats.
Male Sprage Dawley rats, of 180-220 g of weight, anesthetized with sodium pentobarbital (50 mg/Kg, i.p. 1 mL/100 g) have been used. In order to measure the average arterial pressure, a polyethylene catheter is introduced into the carotid artery. The arterial pressure is recorded with the help of a transducer connected with a R611 Beckman polygraph. The tested compounds are administered through the femoral vein 3 min before the injection of PAF (0.5 mcg/Kg, i.v.).

PAF-induced mortality = experiment: Test 3: PAF-induced mortality in mice (p.o.); type: in vivo, mouse (Swiss); conditions: 1 hour before C18-PAF 100 mcg/kg plus propanolol 1 mg/kg i.v., inhibition of mortality, observed 2 hours after PAF; for ED50: Mus musculus, po, 2 h, read-out: ID50 (the source's name)
Method: Finally, certain compounds of the present invention show an improved oral activity with regard to other chemically related PAF-antagonists reported in the literature, such as CV-6209, (disclosed in EP No. 157609) as shown by test 3:
Test 3 - PAF-induced mortality in mice (p.o.)
The experiment is carried out according to the method of Young et al. (Prostaglandins, 1985, 30, 545-551). Groups of 10 Swiss mice weighing 22-26 g are used. 100 mcg/kg of C18 -PAF plus 1 mg/kg of propanolol are intravenously administered in a lateral tail vein 1 hour after the oral administration of test compounds (0.1 mL/10 g). Every animal is observed 2 hours after the PAF injection. Percent inhibition of mortality due to treatments in comparison with control group are recorded. Results are given as ID50 values (mg/kg) in table 3.

[3] = Oryctolagus cuniculus, Platelet

Structure (SMILES): CCCCCCCCCCCCCCCCCCOC1CC(COC(=O)N(Cc2cccc[n+]2C)C(C)=O)CO1 (racemic) [Compound 3, (±)-cis,trans-1-methyl-2-[N-acetyl-N-[[[(2-octadecyloxytetrahydrofuran-4-yl)methoxy]carbonyl]amino]methyl]pyridinium iodide]
IC50 [1, 3]: 45 nM | ED50 [2]: 0.08 mg/kg | ED50 (PAF-induced mortality): > 100 mg/kg

Structure (SMILES): CCCCCCCCCCCCCCCCCCOC1CC(COC(=O)N(Cc2cccc[n+]2CC)C(C)=O)CO1 (racemic) [Compound 4, (±)-cis,trans-1-ethyl-2-[N-acetyl-N-[[[(2-octadecyloxytetrahydrofuran-4-yl)methoxy]carbonyl]amino]methyl]pyridinium iodide]
IC50 [1, 3]: 16 nM | CI50 [2]: 0.053 mg/kg | ED50 (PAF-induced mortality): 14 mg/kg

Structure (SMILES): CCCCCCCCCCCCCCCCCCOC1CC(COC(=O)N(Cc2cccc[n+]2CC)C(C)=O)CO1 (racemic) [Compound 5, (±)-cis,trans-1-ethyl-2-[N-acetyl-N-[[[(2-octadecyloxytetrahydrofuran-4-yl)methoxy[carbonyl[amino]methyl]pyridinium chloride]
IC50 [1]: 12 nM | CI50 [2]: 0.024 mg/kg | ID50 (PAF-induced mortality; 120 min): 19 mg/kg

Structure (SMILES): CCCCCCCCCCCCCCCCOC1CC(COC(=O)N(Cc2cccc[n+]2CC)C(C)=O)CO1 (racemic) [Compound 8, (±)-cis,trans-1-ethyl-2-[N-acetyl-N-[[[(2-hexadecyloxytetrahydrofuran-4-yl)methoxy]carbonyl]amino]methyl]pyridinium iodide]
IC50 [1, 3]: 12 nM | ED50 [2]: 0.01 mg/kg | ED50 (PAF-induced mortality): 80 mg/kg

IC50 [1, 3]: 2900 nM
Structure (SMILES): CCOC1CC(COC(=O)N(Cc2cccc[n+]2CC)C(C)=O)CO1 (racemic) [Compound 11, (±)-cis,trans-1-ethyl-2-[N-acetyl-N-[[[(2-ethoxytetrahydrofuran-4-yl)methoxy]carbonyl]amino]methyl]pyridinium iodide]
ED50 [2]: 2.3 mg/kg

Structure (SMILES): CC[n+]1ccccc1CN(C(C)=O)C(=O)OCC1COC(OCCC(C)C)C1 (racemic) [Compound 14, (±)-cis,trans-1-ethyl-2-[N-acetyl-N-[[[(2-(3-methylbutoxy)tetrahydrofuran-4-yl)methoxy]carbonyl]amino]methyl]pyridinium iodide]
IC50 [1, 3]: 700 nM | ED50 [2]: 0.21 mg/kg

IC50 [1, 3]: 190 nM
Structure (SMILES): CC[n+]1ccccc1CN(C(C)=O)C(=O)OCC1COC(OCCCc2ccccc2)C1 (racemic) [Compound 17, (±)-cis,trans-1-ethyl-2-[N-acetyl-N-[[[(2-(3-phenylpropoxy)tetrahydrofuran-4-yl)methoxy]carbonyl]amino]methyl]pyridinium iodide]
ED50 [2]: 0.12 mg/kg

Structure (SMILES): CCCCCCCCCCCCCCCCCCNC(=O)OCC(COC(=O)N(Cc1cccc[n+]1CC)C(C)=O)OC (stereo not shown) [CV-6209, reference compound]
ED50 (PAF-induced mortality): 70 mg/kg
